Starred links: 1 amine or outer side, 2 acyl side, 3 side chain; linkers in the order of their positions; H or OH if unused. Positions of bridges follow the written chain, without caps; N, C: chain ends. Residues, ends and D or L forms follow the SMILES beside them. *: point of attachment. C18 diacid = O=C(O)CCCCCCCCCCCCCCCCC(=O)*; γGlu = O=C(O)[C@H](CCC(=O)[*:2])N[*:1]; AEEA = NCCOCCOCC(=O)O
Target: T1, human natriuretic peptide receptor 2 (hNPR2) (Homo sapiens, UniProt P20594)
T1 construct: expressed in transfected cells; host or cells: HEK293 (ATCC CRL-1573), clone 35, co-transfected with pGloSensor-42F
T1 sequence (P20594 23-1047): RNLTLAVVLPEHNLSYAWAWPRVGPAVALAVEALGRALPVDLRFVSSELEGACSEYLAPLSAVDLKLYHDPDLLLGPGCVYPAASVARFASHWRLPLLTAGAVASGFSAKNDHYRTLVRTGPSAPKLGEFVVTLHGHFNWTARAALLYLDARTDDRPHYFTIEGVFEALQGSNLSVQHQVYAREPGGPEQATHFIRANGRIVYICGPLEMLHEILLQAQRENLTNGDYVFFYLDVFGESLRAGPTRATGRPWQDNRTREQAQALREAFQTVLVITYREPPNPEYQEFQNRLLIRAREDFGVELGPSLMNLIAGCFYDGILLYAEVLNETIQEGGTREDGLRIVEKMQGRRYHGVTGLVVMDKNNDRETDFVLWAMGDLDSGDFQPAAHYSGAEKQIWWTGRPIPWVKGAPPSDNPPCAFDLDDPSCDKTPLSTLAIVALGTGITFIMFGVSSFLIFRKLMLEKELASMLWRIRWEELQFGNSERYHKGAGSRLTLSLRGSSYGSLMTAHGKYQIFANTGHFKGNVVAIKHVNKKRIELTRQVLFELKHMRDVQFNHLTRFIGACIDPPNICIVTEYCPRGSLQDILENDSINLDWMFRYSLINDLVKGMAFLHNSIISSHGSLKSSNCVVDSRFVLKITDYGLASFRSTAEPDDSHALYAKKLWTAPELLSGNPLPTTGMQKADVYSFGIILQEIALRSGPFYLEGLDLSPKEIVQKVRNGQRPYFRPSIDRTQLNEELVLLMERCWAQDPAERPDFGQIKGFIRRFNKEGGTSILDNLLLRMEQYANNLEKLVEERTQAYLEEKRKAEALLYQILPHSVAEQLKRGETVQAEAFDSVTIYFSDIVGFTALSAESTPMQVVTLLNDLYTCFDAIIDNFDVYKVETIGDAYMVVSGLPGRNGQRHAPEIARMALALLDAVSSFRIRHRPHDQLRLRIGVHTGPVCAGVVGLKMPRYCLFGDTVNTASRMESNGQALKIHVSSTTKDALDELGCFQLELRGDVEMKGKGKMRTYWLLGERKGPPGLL
Assay: In vitro hNPR2 activity assay (cGMP GloSensor reporter, HEK293)
Assay type: cell-based
Conditions: 0% HSA; HEK293-hNPR2/GloSensor cells
Outline: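 Potency is the EC50 from a four-parameter logistic fit, also expressed relative to the in-plate CNP22 control (×100), with at least two replicates. Compounds (ten concentrations, […], HSA-free diluent with 1% OVA, 0.01% Tween20) were incubated 30 min at 37 °C on HEK293 cells co-expressing hNPR2 and a GloSensor cGMP luciferase. Luminescence detected with Bright-Glo.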

Compound `CC[C@H](C)[C@@H]1NC(=O)[C@H](CCCNC(=N)N)NC(=O)[C@H](CCC(=O)O)NC(=O)[C@H](CC(C)C)NC(=O)[C@@H]2CCCN2C(=O)[C@H](CC(C)C)NC(=O)CNC(=O)[C@H](Cc2ccccc2)NC(=O)[C@@H](NC(=O)CNC(=O)[C@H](CCC(N)=O)NC(=O)[C@H](CO)NC(=O)CNC(=O)CNC(=O)[C@H](CCCCN)NC(=O)[C@H](CCCCN)NC(=O)[C@H](CCC(N)=O)NC(=O)[C@H](C)NC(=O)CNC(=O)[C@H](CCCCN)NC(=O)[C@H](Cc2ccc(O)cc2)NC(=O)COCCOCCNC(=O)COCCOCCNC(=O)COCCOCCNC(=O)COCCOCCNC(=O)CC[C@H](NC(=O)CC[C@H](NC(=O)CCCCCCCCCCCCCCCCC(=O)O)C(=O)O)C(=O)O)CSSC[C@@H](C(=O)O)NC(=O)CNC(=O)[C@H](CC(C)C)NC(=O)CNC(=O)[C@H](CO)NC(=O)[C@H](CC(C)C)NC(=O)[C@H](CO)NC(=O)CNC1=O` [compound 1489] ({C18 diacid-γGlu-γGlu-AEEA-AEEA-AEEA-AEEA}-YKGAQKKGGSQGCFGLPLERIGSLSGLGC-OH; disulfide 13-29) has an EC50 of 0.22 nM.

Same assay, conditions: potency relative to CNP22 (0065)

Point of comparison: `CC[C@H](C)[C@@H]1NC(=O)[C@H](CCCNC(=N)N)NC(=O)[C@H](CC(=O)O)NC(=O)[C@H](CC(C)C)NC(=O)[C@@H]2CCCN2C(=O)[C@H](CC(C)C)NC(=O)CNC(=O)[C@H](Cc2ccccc2)NC(=O)[C@@H](NC(=O)CNC(=O)[C@H](CCCCN)NC(=O)[C@H](CO)NC(=O)[C@H](CC(C)C)NC(=O)CNC(=O)[C@H](CCCCN)NC(=O)[C@H](CCCCN)NC(=O)[C@H](CCC(N)=O)NC(=O)[C@H](C)NC(=O)CNC(=O)[C@H](CCCCN)NC(=O)[C@H](Cc2ccc(O)cc2)NC(=O)[C@H](CCCCN)NC(=O)[C@H](CCCNC(=N)N)NC(=O)[C@H](C)NC(=O)[C@H](CCC(N)=O)NC(=O)[C@@H]2CCCN2C(=O)[C@H](Cc2c[nH]cn2)NC(=O)[C@H](CCC(=O)O)NC(=O)[C@H](CCC(N)=O)NC(=O)COCCOCCNC(=O)COCCOCCNC(=O)CC[C@H](NC(=O)CC[C@H](NC(=O)CC[C@H](NC(=O)CC[C@H](NC(=O)CC[C@H](NC(=O)CCCCCCCCCCCCCCCCC(=O)O)C(=O)O)C(=O)O)C(=O)O)C(=O)O)C(=O)O)CSSC[C@@H](C(=O)O)NC(=O)CNC(=O)[C@H](CC(C)C)NC(=O)CNC(=O)[C@H](CO)NC(=O)[C@H](CC(C)C)NC(=O)[C@H](CO)NC(=O)CNC1=O` [compound 1474] ({C18 diacid-γGlu-γGlu-γGlu-γGlu-γGlu-AEEA-AEEA}-QEHPQARKYKGAQKKGLSKGCFGLPLDRIGSLSGLGC-OH; disulfide 21-37; C-terminus assumed), “hNPR2 0% HSA. [EC50% rel CNP]” value 62.5%. Against it:
- CC[C@H](C)[C@@H]1NC(=O)[C@H](CCCNC(=N)N)NC(=O)[C@H](CC(=O)O)NC(=O)[C@H](CC(C)C)NC(=O)[C@@H]2CCCN2C(=O)[C@H](CC(C)C)NC(=O)CNC(=O)[C@H](Cc2ccccc2)NC(=O)[C@@H](NC(=O)CNC(=O)[C@H](CO)NC(=O)[C@H](CO)NC(=O)[C@H](CC(C)C)NC(=O)CNC(=O)[C@@H](NC(=O)[C@H](Cc2c[nH]cn2)NC(=O)[C@H](CCC(N)=O)NC(=O)[C@H](C)NC(=O)CNC(=O)[C@H](Cc2c[nH]cn2)NC(=O)[C@H](Cc2ccc(O)cc2)NC(=O)COCCOCCNC(=O)COCCOCCNC(=O)CC[C@H](NC(=O)CCCCCCCCCCCCCCCCC(=O)O)C(=O)O)[C@@H](C)O)CSSC[C@@H](C(=O)O)NC(=O)CNC(=O)[C@H](CC(C)C)NC(=O)CNC(=O)[C@H](CO)NC(=O)[C@H](CC(C)C)NC(=O)[C@H](CO)NC(=O)CNC1=O [compound 1304] ({C18 diacid-γGlu-AEEA-AEEA}-YHGAQHTGLSSGCFGLPLDRIGSLSGLGC-OH; disulfide 13-29) — lower, 20.7%
- CC[C@H](C)[C@@H]1NC(=O)[C@H](CCCNC(=N)N)NC(=O)[C@H](CC(=O)O)NC(=O)[C@H](CC(C)C)NC(=O)[C@@H]2CCCN2C(=O)[C@H](CC(C)C)NC(=O)CNC(=O)[C@H](Cc2ccccc2)NC(=O)[C@@H](NC(=O)CNC(=O)[C@H](CO)NC(=O)[C@H](CO)NC(=O)[C@@H](NC(=O)CNC(=O)[C@@H](NC(=O)[C@H](CCCCN)NC(=O)[C@H](CCC(N)=O)NC(=O)[C@H](C)NC(=O)CNC(=O)[C@H](Cc2c[nH]cn2)NC(=O)[C@H](Cc2ccc(O)cc2)NC(=O)[C@H](CCCCN)NC(=O)[C@H](CCCNC(=N)N)NC(=O)[C@H](C)NC(=O)COCCOCCNC(=O)COCCOCCNC(=O)CC[C@H](NC(=O)CC[C@H](NC(=O)CCCCCCCCCCCCCCCCC(=O)O)C(=O)O)C(=O)O)[C@@H](C)O)C(C)C)CSSC[C@@H](C(=O)O)NC(=O)CNC(=O)[C@H](CC(C)C)NC(=O)CNC(=O)[C@H](CO)NC(=O)[C@H](CC(C)C)NC(=O)[C@H](CO)NC(=O)CNC1=O [compound 1354] ({C18 diacid-γGlu-γGlu-AEEA-AEEA}-ARKYHGAQKTGVSSGCFGLPLDRIGSLSGLGC-OH; disulfide 16-32) — lower, 27.5%
- CC[C@H](C)[C@@H]1NC(=O)[C@H](CCCNC(=N)N)NC(=O)[C@H](CCC(=O)O)NC(=O)[C@H](CC(C)C)NC(=O)[C@@H]2CCCN2C(=O)[C@H](CC(C)C)NC(=O)CNC(=O)[C@H](Cc2ccccc2)NC(=O)[C@@H](NC(=O)CNC(=O)[C@H](CCC(N)=O)NC(=O)[C@H](CO)NC(=O)CNC(=O)CNC(=O)[C@H](CCCCN)NC(=O)[C@H](CCCCN)NC(=O)[C@H](CCC(N)=O)NC(=O)[C@H](C)NC(=O)CNC(=O)[C@H](CCCCN)NC(=O)[C@H](Cc2ccc(O)cc2)NC(=O)COCCOCCNC(=O)COCCOCCNC(=O)COCCOCCNC(=O)COCCOCCNC(=O)CC[C@H](NC(=O)CC[C@H](NC(=O)CCCCCCCCCCCCCCCCC(=O)O)C(=O)O)C(=O)O)CSSC[C@@H](C(=O)O)NC(=O)CNC(=O)[C@H](CC(C)C)NC(=O)CNC(=O)[C@H](CO)NC(=O)[C@H](CC(C)C)NC(=O)[C@H](CO)NC(=O)CNC1=O [compound 1489] ({C18 diacid-γGlu-γGlu-AEEA-AEEA-AEEA-AEEA}-YKGAQKKGGSQGCFGLPLERIGSLSGLGC-OH; disulfide 13-29) — lower, 3.7%
- CC[C@H](C)[C@@H]1NC(=O)[C@H](CCCNC(=N)N)NC(=O)[C@H](CC(=O)O)NC(=O)[C@H](CC(C)C)NC(=O)[C@@H]2CCCN2C(=O)[C@H](CC(C)C)NC(=O)CNC(=O)[C@H](Cc2ccccc2)NC(=O)[C@@H](NC(=O)CNC(=O)[C@H](CCC(N)=O)NC(=O)[C@H](CO)NC(=O)CNC(=O)CNC(=O)[C@H](CCCCN)NC(=O)[C@H](Cc2c[nH]cn2)NC(=O)[C@H](CCC(N)=O)NC(=O)[C@H](C)NC(=O)CNC(=O)[C@H](CCC(=O)O)NC(=O)[C@H](Cc2ccc(O)cc2)NC(=O)[C@H](CCCCN)NC(=O)[C@H](CCCNC(=N)N)NC(=O)[C@H](C)NC(=O)COCCOCCNC(=O)COCCOCCNC(=O)COCCOCCNC(=O)COCCOCCNC(=O)CC[C@H](NC(=O)CC[C@H](NC(=O)CCCCCCCCCCCCCCCCC(=O)O)C(=O)O)C(=O)O)CSSC[C@@H](C(=O)O)NC(=O)CNC(=O)[C@H](CC(C)C)NC(=O)CNC(=O)[C@H](CO)NC(=O)[C@H](CC(C)C)NC(=O)[C@H](CO)NC(=O)CNC1=O [compound 1432] ({C18 diacid-γGlu-γGlu-AEEA-AEEA-AEEA-AEEA}-ARKYEGAQHKGGSQGCFGLPLDRIGSLSGLGC-OH; disulfide 16-32) — lower, 26.0%
- CC[C@H](C)[C@@H]1NC(=O)[C@H](CCCNC(=N)N)NC(=O)[C@H](CC(=O)O)NC(=O)[C@H](CC(C)C)NC(=O)[C@@H]2CCCN2C(=O)[C@H](CC(C)C)NC(=O)CNC(=O)[C@H](Cc2ccccc2)NC(=O)[C@@H](NC(=O)CNC(=O)[C@H](CCC(N)=O)NC(=O)[C@H](CO)NC(=O)CNC(=O)CNC(=O)[C@H](CCCCN)NC(=O)[C@H](CCCCN)NC(=O)[C@H](CCC(N)=O)NC(=O)[C@H](C)NC(=O)CNC(=O)[C@H](Cc2c[nH]cn2)NC(=O)[C@H](Cc2ccc(O)cc2)NC(=O)COCCOCCNC(=O)COCCOCCNC(=O)COCCOCCNC(=O)COCCOCCNC(=O)CC[C@H](NC(=O)CC[C@H](NC(=O)CCCCCCCCCCCCCCCCC(=O)O)C(=O)O)C(=O)O)CSSC[C@@H](C(=O)O)NC(=O)CNC(=O)[C@H](CC(C)C)NC(=O)CNC(=O)[C@H](CO)NC(=O)[C@H](CC(C)C)NC(=O)[C@H](CO)NC(=O)CNC1=O [compound 1434] ({C18 diacid-γGlu-γGlu-AEEA-AEEA-AEEA-AEEA}-YHGAQKKGGSQGCFGLPLDRIGSLSGLGC-OH; disulfide 13-29) — lower, 29.0%
- CC[C@H](C)[C@@H]1NC(=O)[C@H](CCCNC(=N)N)NC(=O)[C@H](CC(=O)O)NC(=O)[C@H](CC(C)C)NC(=O)[C@@H]2CCCN2C(=O)[C@H](CC(C)C)NC(=O)CNC(=O)[C@H](Cc2ccccc2)NC(=O)[C@@H](NC(=O)CNC(=O)[C@H](CO)NC(=O)[C@H](CO)NC(=O)[C@H](CC(C)C)NC(=O)CNC(=O)[C@H](CCCCN)NC(=O)[C@H](CCCCN)NC(=O)[C@H](CCC(N)=O)NC(=O)[C@H](C)NC(=O)CNC(=O)[C@H](CCCCN)NC(=O)[C@H](Cc2ccc(O)cc2)NC(=O)COCCOCCNC(=O)COCCOCCNC(=O)CC[C@H](NC(=O)CCCCCCCCCCCCCCCCC(=O)O)C(=O)O)CSSC[C@@H](C(=O)O)NC(=O)CNC(=O)[C@H](CC(C)C)NC(=O)CNC(=O)[C@H](CO)NC(=O)[C@H](CC(C)C)NC(=O)[C@H](CO)NC(=O)CNC1=O [compound 1233] ({C18 diacid-γGlu-AEEA-AEEA}-YKGAQKKGLSSGCFGLPLDRIGSLSGLGC-OH; disulfide 13-29) — lower, 49.7%

Reference: patent US20240209028A1, “CNP COMPOUNDS” (priority 2022, published 2024)
